According to patent US12285399B2, “Composition comprising bornyl acetate or pharmaceutically acceptable salt thereof as active ingredient for prevention or treatment of stress-related disorder” (UNIVERSITY-INDUSTRY COOPERATION GROUP OF KYUNG HEE …, priority 2019, dated 2025):

How the values were obtained:
Format in all cases: in vivo, C57BL/6NTac mice
[1] = test system: animal model of stress depression induced by chronic restrained stress (CRS); assay: Tail suspension test (TST) in CRS-induced stress depression model; conditions: CRS+BA group, oral daily 1 hour before restraint, day 14, last 4 minutes of 6-minute test; dose not stated
Method: In order to confirm the antidepressant efficacy of bornyl acetate on the animal model of stress depression, an animal model of depression induced by chronic restrained stress (CRS) was prepared. Specifically, the animal model, 8-week-old male C57BL/6NTac mice after birth (Narabiotechnology, Korea; weight 22-24 g) had been stabilized for 1 week. A 50 ml conical tube (SPL Life sciences, Pocheon, Korea) was punched to make a hole, thereby making a restraint frame. The mice were put in the frame and restrained for 2 hours every day for 14 days. After restraint, the mice were allowed to freely ingest water and food in the home cage. On the 14th day after chronic restrained stress was induced, the tail tip of the mouse was fixed and hanged upside down on a horizontal bar (1 cm in diameter) installed at a height of about 50 cm from the floor, and then the time of immobility was measured. Measurements were made during the last 4 minutes of the 6-minute test period. Bornyl acetate (25, 50 and 100 mg/kg) of the present invention was dissolved in 0.1 M PBS, and the mixture was orally administered 1 hour before inducing restrained stress every day. Bornyl acetate was administered in a dose per individual of 100 μl.

COX-2 protein = assay: Western blot of COX-2 protein in brain (hippocampus and amygdala) of CRS model; conditions: CRS+BA group
Method: In order to confirm the antidepressant efficacy of bornyl acetate on the animal model of stress depression, an animal model of depression induced by chronic restrained stress (CRS) was prepared. Specifically, the animal model, 8-week-old male C57BL/6NTac mice after birth (Narabiotechnology, Korea; weight 22-24 g) had been stabilized for 1 week. A 50 ml conical tube (SPL Life sciences, Pocheon, Korea) was punched to make a hole, thereby making a restraint frame. The mice were put in the frame and restrained for 2 hours every day for 14 days. After restraint, the mice were allowed to freely ingest water and food in the home cage. The hippocampus and amygdala of the brain were excised. They were added to 200 μl of a protein lysis buffer (10 mM Tris, 0.5 mM EDTA, 0.25 M sucrose), and proteins were isolated using a grinder. The isolated protein was quantified by the Bradford method (Bio-rad, USA) using bovine serum albumin (BSA, Sigma, USA), and then 25 μg of the protein was separated by 10% sodium dodecyl sulfate-polyacrylamide gel electrophoresis (SDS-PAGE) and transferred to polyvinylidene difluoride (PVDF) membrane (Gendepot, UK). PVDF membranes were blocked in 5% skimmed milk (BD, USA) for 1 hour. […] Identification and quantitative analysis of proteins were analyzed using an imaging device ChemiDoc XRS+ (Bio-Rad). […]

iNOS mRNA = assay: RT-PCR of iNOS mRNA in brain (hippocampus and amygdala) of CRS model; conditions: CRS+BA group, 100 mg/kg oral
Method: In order to confirm the antidepressant efficacy of bornyl acetate on the animal model of stress depression, an animal model of depression induced by chronic restrained stress (CRS) was prepared. Specifically, the animal model, 8-week-old male C57BL/6NTac mice after birth (Narabiotechnology, Korea; weight 22-24 g) had been stabilized for 1 week. A 50 ml conical tube (SPL Life sciences, Pocheon, Korea) was punched to make a hole, thereby making a restraint frame. The mice were put in the frame and restrained for 2 hours every day for 14 days. After restraint, the mice were allowed to freely ingest water and food in the home cage.
In order to confirm the inhibitory effect of bornyl acetate on the expression of inflammatory mediators in an animal model of depression induced by chronic restrained stress, mRNA expression was confirmed using reverse transcription-polymerase chain reaction (RT-PCR). Bornyl acetate (100 mg/kg) was orally administered 1 hour before inducing the restrained stress every day. […]
Western blot and RT-PCR analysis were performed in the brain (hippocampus and amygdala) of an animal model of chronic restrained stress (CRS)-induced stress depression to exam and quantify the activation level of inflammatory mediators, thereby verifying the modulating effect of bornyl acetate on the inflammatory response in the brain. […]

CC(=O)OC1CC2CCC1(C)C2(C)C (centres unmarked) [BA, bornyl acetate]
time of immobility, tail suspension test [1]: 91.4 s | protein expression of COX-2 (CRS-induced increase) (COX-2 protein; amygdala): significantly inhibited | protein expression of COX-2 (CRS-induced increase) (COX-2 protein; hippocampus): significantly inhibited | mRNA expression of iNOS (CRS-induced increase) (iNOS mRNA; amygdala): significantly inhibited | mRNA expression of iNOS (CRS-induced increase) (iNOS mRNA; hippocampus): significantly inhibited
